Results on 14 compounds are retold here after patent publication US8022205B2, “Pyrimidine derivatives as PI3K inhibitor and use thereof” (Chugai Seiyaku Kabushiki Kaisha, priority 2006, dated 2011).

The IC50 is the concentration needed to halve the response being measured.

The structures appear in SMILES notation.

The target of one experiment is human PI3K(p110α/p85α) (Homo sapiens, UniProt P42336). Description: Measurement of PI3K inhibitory activity (AlphaScreen GST Detection Kit). The note with it: 10 μM ATP, 4 μM PI(4,5)P2, read-out: Enzyme inhibitory activity (IC50, μM) PI3K α. Format: biochemical. In short, it runs like this:
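AlphaScreen read-out: after 1 h at room temperature, GST-GRP1, biotin-PI(3,4,5)P3 and donor/acceptor beads sensed PIP3 made by the enzyme. The kinase reaction used baculovirus-made human PI3K p110α/p85α with 10 μM ATP and 4 μM PI(4,5)P2 for 15 min at 37 °C, following a 20-min compound preincubation.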
A general note: Alpha assays give light when donor and acceptor beads are brought close together.

Experiment [1] concerns human colon cancer cell line HCT116. Description: Cell proliferation inhibitory activity (Cell Counting Kit-8), colon cancer HCT116. The note with it: HCT-116, 96 h, HCT116, 4 days. It counts as cell-based. An outline of the steps:
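HCT116 cells (2000/well) were exposed to compounds for 4 days at 37 °C under CO2. Viability was then read with CCK-8 as absorbance at 450 nm (reference 615 nm).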

Experiment [2] relates to human prostate cancer cell line PC3. Description: Cell proliferation inhibitory activity (Cell Counting Kit-8), prostate cancer PC3. The settings on record: 96 h, PC3, 4 days. Format: cell-based. In short, it runs like this:
(§1)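 PC3 (3000 cells/well) or NCI-H460 (1000 cells/well) exposed to compound for 4 days at 37 °C in CO2. CCK-8 absorbance at 450 nm (reference 615 nm); percent proliferation inhibition calculated at 2.5 µM.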

Experiment [3] deals with human lung cancer cell line NCI-H460. Description: Cell proliferation inhibitory activity (Cell Counting Kit-8), lung cancer NCI-H460. Format: cell-based. The note with it: 96 h, NCI-H460, 4 days, read-out: Cell proliferation inhibitory activity (% Inhibition at 2.5 μM) Non-small cell lung cancer (NCI-H460). An outline of the steps: as §1
In general terms: Tetrazolium dyes change colour on reduction, which living cells bring about.

human PI3K(p110α/p85α), sequence (P42336 whole entry): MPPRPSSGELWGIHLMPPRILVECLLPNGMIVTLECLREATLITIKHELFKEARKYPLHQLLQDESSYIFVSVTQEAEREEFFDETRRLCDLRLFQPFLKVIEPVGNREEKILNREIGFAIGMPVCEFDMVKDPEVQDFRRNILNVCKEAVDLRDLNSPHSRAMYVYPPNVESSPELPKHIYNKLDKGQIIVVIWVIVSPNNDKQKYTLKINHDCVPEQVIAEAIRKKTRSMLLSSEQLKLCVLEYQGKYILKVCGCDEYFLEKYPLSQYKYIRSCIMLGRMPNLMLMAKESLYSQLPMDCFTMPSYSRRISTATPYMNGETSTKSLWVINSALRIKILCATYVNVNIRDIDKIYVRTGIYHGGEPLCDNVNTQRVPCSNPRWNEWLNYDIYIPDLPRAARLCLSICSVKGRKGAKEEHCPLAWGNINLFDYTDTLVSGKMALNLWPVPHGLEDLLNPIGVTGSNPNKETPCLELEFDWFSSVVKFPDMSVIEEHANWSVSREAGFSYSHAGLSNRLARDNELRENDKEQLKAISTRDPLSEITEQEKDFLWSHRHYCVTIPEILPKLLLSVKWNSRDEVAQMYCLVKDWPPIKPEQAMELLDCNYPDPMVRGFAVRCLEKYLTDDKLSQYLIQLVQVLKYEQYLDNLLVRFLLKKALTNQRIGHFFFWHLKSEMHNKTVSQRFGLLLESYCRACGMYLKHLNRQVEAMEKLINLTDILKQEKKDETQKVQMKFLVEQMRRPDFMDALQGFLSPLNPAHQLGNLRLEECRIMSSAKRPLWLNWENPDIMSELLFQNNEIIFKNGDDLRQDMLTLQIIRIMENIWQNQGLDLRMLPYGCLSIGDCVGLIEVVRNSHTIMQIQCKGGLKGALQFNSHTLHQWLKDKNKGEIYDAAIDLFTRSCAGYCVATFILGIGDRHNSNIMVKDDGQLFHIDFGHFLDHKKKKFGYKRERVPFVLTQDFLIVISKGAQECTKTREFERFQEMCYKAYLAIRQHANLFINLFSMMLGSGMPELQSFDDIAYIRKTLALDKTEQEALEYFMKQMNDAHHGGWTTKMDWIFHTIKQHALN
human PI3K(p110α/p85α), sequence (P27986 whole entry partner): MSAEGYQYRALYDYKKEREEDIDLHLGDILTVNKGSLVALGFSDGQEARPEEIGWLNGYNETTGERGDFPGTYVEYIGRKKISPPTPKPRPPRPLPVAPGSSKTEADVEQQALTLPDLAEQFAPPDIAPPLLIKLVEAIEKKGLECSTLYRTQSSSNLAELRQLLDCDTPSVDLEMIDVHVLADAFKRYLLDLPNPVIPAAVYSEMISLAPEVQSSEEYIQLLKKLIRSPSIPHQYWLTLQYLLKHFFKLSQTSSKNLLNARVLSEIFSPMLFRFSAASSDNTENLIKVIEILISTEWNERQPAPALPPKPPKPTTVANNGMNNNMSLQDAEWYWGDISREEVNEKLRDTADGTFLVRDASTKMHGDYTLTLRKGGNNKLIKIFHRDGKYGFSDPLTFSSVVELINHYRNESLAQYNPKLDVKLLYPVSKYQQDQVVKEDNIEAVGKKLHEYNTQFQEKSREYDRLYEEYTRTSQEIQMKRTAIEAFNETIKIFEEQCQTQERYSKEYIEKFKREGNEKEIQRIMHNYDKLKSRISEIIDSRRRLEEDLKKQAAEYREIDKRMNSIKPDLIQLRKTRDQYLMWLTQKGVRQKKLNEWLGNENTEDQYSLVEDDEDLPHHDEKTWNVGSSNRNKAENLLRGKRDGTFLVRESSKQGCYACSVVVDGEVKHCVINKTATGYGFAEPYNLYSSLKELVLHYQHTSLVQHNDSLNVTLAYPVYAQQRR

On to `CN1CCN(C(=O)c2ccc(NC(=S)N3CCc4c(-c5cnc(N)nc5)nc(N5CCOCC5)nc43)cc2)CC1` [Example D-231, 4-(2-Amino-pyrimidin-5-yl)-2-morpholin-4-yl-5,6-dihydro-pyrrolo[2,3-d]pyrimidine-7-carbothioic acid [4-(4-methyl-piperazine-1-carbonyl)-phenyl]-amide], for which the IC50 at human PI3K(p110α/p85α) was determined as 0.011 µM. Also, the inhibition at 2.5 µM in experiment [1] is 33%; in experiment [2], 37%; in experiment [3], 71%.
Take `Cc1ccc(N2CCOCC2)cc1NC(=O)N1CCc2c(-c3cnc(N)nc3)nc(N3CCOCC3)nc21` [Example D-237, 4-(2-Amino-pyrimidin-5-yl)-2-morpholin-4-yl-5,6-dihydro-pyrrolo[2,3-d]pyrimidine-7-carboxylic acid (2-methyl-5-morpholin-4-yl-phenyl)-amide]: the IC50 at human PI3K(p110α/p85α) was found to be 0.005 µM. For the same compound, the inhibition at 2.5 µM in experiment [1] came to 95%; in experiment [2], 97%; in experiment [3], 84%.
On to `CCN1CCN(c2ccc(NC(=O)N3CCc4c(-c5cnc(N)nc5)nc(N5CCOCC5)nc43)c(C)c2)CC1` [Example D-242, 4-(2-Amino-pyrimidin-5-yl)-2-morpholin-4-yl-5,6-dihydro-pyrrolo[2,3-d]pyrimidine-7-carboxylic acid [4-(4-ethyl-piperazin-1-yl)-2-methyl-phenyl]-amide], for which the IC50 on human PI3K(p110α/p85α) was 0.01 µM. For the same compound, the figures for the inhibition at 2.5 µM in experiment [1], in experiment [2] and in experiment [3] were 99%, 100% and 55%, respectively.
Turning to `Nc1ncc(-c2nc(N3CCOCC3)nc3c2CCN3c2ccc(C(=O)NCc3ccncc3)cc2)cn1` [Example D-264, 4-[4-(2-Amino-pyrimidin-5-yl)-2-morpholin-4-yl-5,6-dihydro-pyrrolo[2,3-d]pyrimidin-7-yl]-N-pyridin-4-ylmethyl-benzamide], the IC50 at human PI3K(p110α/p85α) was found to be 0.007 µM. Also, the inhibition at 2.5 µM in experiment [1] turned out to be 63%; in experiment [2], 72%; in experiment [3] it was 82%.
For `Nc1ncc(-c2nc(N3CCOCC3)nc3c2CCN3c2ccc(C(=O)N3CCN(c4ccncc4)CC3)cc2)cn1` [Example D-265, {4-[4-(2-Amino-pyrimidin-5-yl)-2-morpholin-4-yl-5,6-dihydro-pyrrolo[2,3-d]pyrimidin-7-yl]-phenyl}-(4-pyridin-4-yl-piperazin-1-yl)-methanone] the same measures were 0.006 µM, 98%, 96% and 71%.
For `Nc1ncc(-c2nc(N3CCOCC3)nc3c2CCN3C(=O)Nc2c(F)cc(N3CCOCC3)cc2F)cn1` [Example D-273, 4-(2-Amino-pyrimidin-5-yl)-2-morpholin-4-yl-5,6-dihydro-pyrrolo[2,3-d]pyrimidine-7-carboxylic acid (2,6-difluoro-4-morpholin-4-yl-phenyl)-amide], in that order: 0.01 µM, 83%, 79% and 67%.
On to `Nc1ncc(-c2nc(N3CCOCC3)nc3c2CCN3c2ccc(C(=O)N3CCN(c4ccncc4)CC3)cc2F)cn1` [Example D-286, {4-[4-(2-Amino-pyrimidin-5-yl)-2-morpholin-4-yl-5,6-dihydro-pyrrolo[2,3-d]pyrimidin-7-yl]-3-fluoro-phenyl}-(4-pyridin-4-yl-piperazin-1-yl)-methanone], for which the IC50 at human PI3K(p110α/p85α) stood at 0.008 µM. The inhibition at 2.5 µM stood at 94% in experiment [1], 89% in experiment [2] and 97% in experiment [3].
Regarding `CCN1CCN(c2ccc(C)c(NC(=S)N3CCc4c(-c5cnc(N)nc5)nc(N5CCOCC5)nc43)c2)CC1` [Example D-290, 4-(2-Amino-pyrimidin-5-yl)-2-morpholin-4-yl-5,6-dihydro-pyrrolo[2,3-d]pyrimidine-7-carbothioic acid [5-(4-ethyl-piperazin-1-yl)-2-methyl-phenyl]-amide], the IC50 at human PI3K(p110α/p85α) was found to be 0.009 µM. Moreover, the inhibition at 2.5 µM was 99% in experiment [1], 99% in experiment [2] and 18% in experiment [3].
Turning to `Nc1ncc(-c2nc(N3CCOCC3)nc3c2CCN3c2ccc(C(=O)N3CCC(N4CCOCC4)CC3)cc2)cn1` [Example D-307, {4-[4-(2-Amino-pyrimidin-5-yl)-2-morpholin-4-yl-5,6-dihydro-pyrrolo[2,3-d]pyrimidin-7-yl]-phenyl}-(4-morpholin-4-yl-piperidin-1-yl)-methanone], at human PI3K(p110α/p85α), the IC50 was determined as 0.009 µM. Also, the inhibition at 2.5 µM stood at 87% in experiment [1], 89% in experiment [2] and 58% in experiment [3].
For `CN(Cc1cccnc1)C(=O)c1ccc(N2CCc3c(-c4cnc(N)nc4)nc(N4CCOCC4)nc32)c(F)c1` [Example D-318, 4-[4-(2-Amino-pyrimidin-5-yl)-2-morpholin-4-yl-5,6-dihydro-pyrrolo[2,3-d]pyrimidin-7-yl]-3-fluoro-N-methyl-N-pyridin-3-ylmethyl-benzamide], in that order: 0.007 µM, 96%, 94% and 89%.
In the case of `CN1CCN(Cc2ccc(N3CCc4c(-c5cnc(N)nc5)nc(N5CCOCC5)nc43)cc2F)CC1` [Example D-325, 5-{7-[3-fluoro-4-(4-methyl-piperazin-1-ylmethyl)-phenyl]-2-morpholin-4-yl-6,7-dihydro-5H-pyrrolo[2,3-d]pyrimidin-4-yl}-pyrimidin-2-ylamine], the IC50 on human PI3K(p110α/p85α) turned out to be 0.11 µM. Further, the inhibition at 2.5 µM was found to be 78% in experiment [1], 73% in experiment [2] and 81% in experiment [3].
On to `CN1CCN(Cc2ccc(N3CCc4c(-c5cnc(N)nc5)nc(N5CCOCC5)nc43)c(F)c2)CC1` [Example D-326, 5-{7-[2-fluoro-4-(4-methyl-piperazin-1-ylmethyl)-phenyl]-2-morpholin-4-yl-6,7-dihydro-5H-pyrrolo[2,3-d]pyrimidin-4-yl}-pyrimidin-2-ylamine], for which the IC50 at human PI3K(p110α/p85α) was determined as 0.24 µM. Moreover, the inhibition at 2.5 µM in experiment [1] is 72%; in experiment [2], 81%; in experiment [3], 83%.
With `CCCN1CCN(Cc2ccc(N3CCc4c(-c5cnc(N)nc5)nc(N5CCOCC5)nc43)cc2)CC1` [Example D-327, 5-{2-morpholin-4-yl-7-[4-(4-propyl-piperazin-1-ylmethyl)-phenyl]-6,7-dihydro-5H-pyrrolo[2,3-d]pyrimidin-4-yl}-pyrimidin-2-ylamine], the IC50 at human PI3K(p110α/p85α) amounted to 0.07 µM. Besides, the inhibition at 2.5 µM in experiment [1] worked out at 78%; in experiment [2] it was 79%; in experiment [3] it was 85%.
As to `CC(C)N1CCN(Cc2ccc(N3CCc4c(-c5cnc(N)nc5)nc(N5CCOCC5)nc43)cc2)CC1` [Example D-328, 5-{7-[4-(4-isopropyl-piperazin-1-ylmethyl)-phenyl]-2-morpholin-4-yl-6,7-dihydro-5H-pyrrolo[2,3-d]pyrimidin-4-yl}-pyrimidin-2-ylamine], at human PI3K(p110α/p85α), the IC50 came to 0.06 µM. In addition, the values for the inhibition at 2.5 µM in experiment [1], in experiment [2] and in experiment [3] were 84%, 84% and 91%, respectively.
